Source: ChEMBL document CHEMBL6182844, “LC-MS Guided Discovery and Biosynthetic Pathway of Coprisamides E-H, Cinnamic Acid-Containing Metabolites from the Marine Algae-Derived Streptomyces thermolineatus NAK03196” (2025)
Values after ≈ are worked out from the molar mass of the structure shown. Active and inactive are the calls of the source. The calls are words filed in the database; no cut-off is given here.

Assays:
Conditions in all cases: time 12-16 hrs
Staphylococcus aureus [1] = assay: Antibacterial activity against the Staphylococcus aureus 16339 incubated for 12 to 16 hrs by paper disc diffusion assay; assay type: functional
Pseudomonas aeruginosa = assay: Antibacterial activity against Pseudomonas aeruginosa assessed as inhibition on the growth incubated for 12 to 16 hrs by paper disc diffusion assay; assay type: functional, organism-based
Klebsiella pneumoniae = assay: Antibacterial activity against Klebsiella pneumoniae assessed as inhibition on the growth incubated for 12 to 16 hrs by paper disc diffusion assay; assay type: functional, organism-based
Staphylococcus aureus [2] = assay: Antibacterial activity against Staphylococcus aureus ATCC 29213 assessed as inhibition on the growth incubated for 12 to 16 hrs by paper disc diffusion assay; assay type: functional, organism-based
Staphylococcus aureus [3] = assay: Antibacterial activity against methicillin-resistant Staphylococcus aureus ATCC 43300 assessed as inhibition on the growth incubated for 12 to 16 hrs by paper disc diffusion assay; assay type: functional, organism-based
Escherichia coli = assay: Antibacterial activity against Escherichia coli assessed as inhibition on the growth incubated for 12 to 16 hrs by paper disc diffusion assay; assay type: functional, organism-based
Enterococcus faecalis = assay: Antibacterial activity against Enterococcus faecalis assessed as inhibition on the growth incubated for 12 to 16 hrs by paper disc diffusion assay; assay type: functional, organism-based
Micrococcus luteus = assay: Antibacterial activity against Micrococcus luteus assessed as inhibition on the growth incubated for 12 to 16 hrs by paper disc diffusion assay; assay type: functional, organism-based
Acinetobacter baumannii = assay: Antibacterial activity against Acinetobacter baumannii assessed as inhibition on the growth incubated for 12 to 16 hrs by paper disc diffusion assay; assay type: functional, organism-based

Work on `CN(C)[C@@H]1C(O)=C(C(N)=O)C(=O)[C@@]2(O)C(O)=C3C(=O)c4c(O)cccc4[C@@](C)(O)[C@H]3C[C@@H]12` [TETRACYCLINE] yielded an MIC (Staphylococcus aureus [1]) of 10 µg/mL (≈ 22.5 µM).

In the case of `C/C=C/C=C/C=C\c1ccccc1/C=C/C(=O)N[C@H](C)C(=O)N[C@@H]1COC(=O)[C@H](CC(=O)O)NC(=O)[C@H](CNC(=O)[C@@H](N)C(C)C)NC(=O)[C@H](C(C)C)NC(=O)[C@@H](CC(C)C)NC1=O`, the MIC (Staphylococcus aureus [1]) is reported as 890 µg/mL (≈ 997 µM), the inhibition (Pseudomonas aeruginosa) is reported as “inactive” and the inhibition (Klebsiella pneumoniae) is reported as “inactive”. The inhibition (Staphylococcus aureus [2]) was “inactive”, the inhibition (Staphylococcus aureus [3]) was “inactive” and the inhibition (Escherichia coli) was “inactive”. The inhibition (Enterococcus faecalis) was “inactive”, the inhibition (Micrococcus luteus) was “inactive” and the inhibition (Acinetobacter baumannii) was “inactive”.
